Results as given in patent publication US9573954B2, “Pyrazolopyrimidine compounds” (University Health Network, priority 2012, dated 2017).
Where two headings read alike, the source gives them in different places.

Legend:
[1] = tested on: ovarian cancer cells (OVCAR-3); assay: Cancer cell line growth inhibition, Sulforhodamine B assay, OVCAR-3; assay type: cell-based; settings: read-out: Cancer Cell Line GI50 Range OVCAR-3
Procedure: (§1) Breast cancer cells (MDA-MB-231 and MDA-MB-468), colon cancer cells (HCT116) and ovarian cancer cells (PA-1 and OVCAR-3) were seeded (1000 to 4000 in 80 μl per well depending on the cell growth rate) into 96 well plates 24 hours before compound overlay. Compounds were prepared as 10 mM stock solutions in 100% DMSO which were diluted with DMEM (Dulbecco's Modified Eagle's Medium) cell growth Medium (Invitrogen, Burlington, ON, Canada) containing 10% FBS (Fetal Bovine Serum) to concentrations ranging from 50 nM to 250 μM. Aliquots (20 μl) from each concentration were overlaid to 80 μl of the pre-seeded cells in the 96 well plates to make final concentrations of 10 nM to 50 μM. The cells were cultured for 5 days before the Sulforhodamine B assay (SRB) was performed to determine the compound's cell growth inhibition activity.
(§2) Sulforhodamine B (purchased from Sigma, Oakville, ON, Canada) is a water-soluble dye that binds to the basic amino acids of the cellular proteins. Thus, colorimetric measurement of the bound dye provides an estimate of the total protein mass that is related to the cell number. the cells are fixed in situ by gently aspirating off the culture media and adding 50 μl ice cold 10% Trichloroacetic Acid (TCA) per well and incubate at 4° C. for 30-60 min, The plates are washed with H2O five times and allowed to air dry for 5 min. Addition of 50 μl 0.4% (w/v) SRB solution in 1% (v/v) acetic acid to each well and incubation for 30 min at RT completes the staining reaction. Following staining, plates are washed four times with 1% acetic acid to remove unbound dye and then allowed to air dry for 5 min. The stain is solubilized with 100 μl of 10 mM Tris pH 10.5 per well. Absorbance is read at 570 nm.
(§3) The percentage (%) of relative growth inhibition was calculated by comparing to DMSO treated only cells (100%). GI50's were determined for compounds with cytotoxic activity. The GI50 was calculated using GraphPad PRISM software (GraphPad Software, Inc., San Diego, Calif., USA).
(§4) In Table 3 below, GI50 value ranges for compound examples against breast cancer cell lines (MDA-MB-468), colon cancer cell lines (HCT116) and ovarian cancer cell lines (OVCAR-3) are given.

[2] = tested on: breast cancer cells (MDA-MB-468); assay: Cancer cell line growth inhibition, Sulforhodamine B assay, MDA-MB-468; assay type: cell-based; settings: read-out: Cancer Cell Line GI50 Range MDA-MB-468
Procedure: as §1, §2, §3
(§5) In Table 1 below, GI50 value ranges for compound examples against breast cancer cell lines (MDA-MB-468), colon cancer cell lines (HCT116) and ovarian cancer cell lines (PA-1) are given.
as §4

[3] = target: T1, human TTK (Homo sapiens, UniProt P33981); assay: TTK inhibition assay (indirect ELISA); assay type: biochemical; settings: 100 μM ATP; read-out: TTK IC50 Range
T1 construct: Active TTK was purchased from Invitrogen as an amino terminal GST fusion of full length human TTK; purchased Invitrogen
T1 sequence (P33981 1-857): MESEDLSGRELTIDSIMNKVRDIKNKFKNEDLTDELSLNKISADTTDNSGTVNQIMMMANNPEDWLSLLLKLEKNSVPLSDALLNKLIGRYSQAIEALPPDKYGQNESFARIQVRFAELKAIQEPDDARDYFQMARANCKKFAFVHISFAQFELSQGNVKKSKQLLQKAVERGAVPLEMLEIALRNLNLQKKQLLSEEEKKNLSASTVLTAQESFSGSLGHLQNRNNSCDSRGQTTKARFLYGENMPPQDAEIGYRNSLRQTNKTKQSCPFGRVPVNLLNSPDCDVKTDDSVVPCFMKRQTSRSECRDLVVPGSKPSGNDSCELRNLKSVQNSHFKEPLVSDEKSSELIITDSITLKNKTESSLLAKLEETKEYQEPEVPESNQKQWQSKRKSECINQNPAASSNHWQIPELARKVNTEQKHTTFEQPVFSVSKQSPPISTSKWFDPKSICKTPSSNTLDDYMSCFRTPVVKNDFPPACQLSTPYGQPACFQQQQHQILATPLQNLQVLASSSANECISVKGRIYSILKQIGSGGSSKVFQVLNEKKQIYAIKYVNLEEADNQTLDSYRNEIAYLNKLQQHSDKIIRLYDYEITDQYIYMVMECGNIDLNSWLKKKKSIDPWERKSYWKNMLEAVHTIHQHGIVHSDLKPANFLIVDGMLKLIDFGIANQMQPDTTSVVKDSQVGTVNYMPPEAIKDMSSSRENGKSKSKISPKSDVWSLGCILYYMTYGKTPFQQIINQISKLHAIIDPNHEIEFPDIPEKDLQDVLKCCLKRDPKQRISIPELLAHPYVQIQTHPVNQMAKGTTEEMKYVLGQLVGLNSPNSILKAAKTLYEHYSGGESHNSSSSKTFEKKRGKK
Procedure, shortened: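 Activity detected by indirect ELISA after compounds sat with full-length GST-TTK for 5 min prior to starting the reaction with ATP. IC50 came from a four-parameter logistic curve of % inhibition, calculated against background and uninhibited control wells.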

[4] = tested on: colon cancer cells (HCT116); assay: Cancer cell line growth inhibition, Sulforhodamine B assay, HCT116; assay type: cell-based; settings: read-out: Cancer Cell Line GI50 Range HCT116
Procedure: as §1, §2, §3, §5
In Table 2 below, GI50 value ranges for compound examples against breast cancer cell lines (MDA-MB-231), colon cancer cell lines (HCT116) and ovarian cancer cell lines (PA-1) are given.
as §4

[5] = Homo sapiens, OVCAR-3, OVCAR-3 ovarian cancer cell line
[6] = Homo sapiens, MDA-MB-468, MDA-MB-468 breast cancer cell line
[7] = Homo sapiens, HCT-116, HCT116 colon cancer cell line

| GI50 [1, 5] [nM] | GI50 [2, 6] [nM] | IC50 [3] [nM] | GI50 [4, 7] [nM] | GI50 ([1]; OVCAR-3 ovarian cancer cell line) [nM] | GI50 ([2]; MDA-MB-468 breast cancer cell line) [nM] | GI50 ([4]; HCT116 colon cancer cell line) [nM] | Compound |
| --- | --- | --- | --- | --- | --- | --- | --- |
| > 500 | > 500 | < 100 | 100 to 500 |  |  |  | Cc1cc(-c2cnn3c(NCC4CCOCC4)cc(N[C@H](CO)C4CCOCC4)nc23)ccc1C(=O)NC1CC1 [Example C89] |
| > 500 | 100 to 500 | < 100 | 100 to 500 |  |  |  | CCO[C@H]1COC[C@@H]1Nc1cc(NCC2CCOCC2)n2ncc(-c3ccc(C(=O)NC4CC4)c(C)c3)c2n1 [Example C90] |
| > 500 | > 500 | < 100 | 100 to 500 |  |  |  | Cc1cc(-c2cnn3c(NCC4(CO)CCOCC4)cc(NC4CCCC4)nc23)ccc1C(=O)NC1CC1 [Example C92] |
| > 500 | > 500 | < 100 | > 500 |  |  |  | Cc1cc(-c2cnn3c(NCC4(O)CCOCC4)cc(NC4CCOCC4)nc23)ccc1C(=O)NC1CC1 [Example C94] |
| > 500 | > 500 | < 100 | 100 to 500 |  |  |  | Cc1cc(-c2cnn3c(NCC4(O)CCOCC4)cc(NC4CCCC4)nc23)ccc1C(=O)NC1CC1 [Example C95] |
| > 500 | > 500 | < 100 | > 500 |  |  |  | Cc1cc(-c2cnn3c(NCCN4CCOCC4)cc(Oc4cccc(N(C)C)c4)nc23)ccc1C(=O)NC1CC1 [Example C96] |
| 100 to 500 | 100 to 500 | < 100 | ≤ 100 |  |  |  | Cc1cc(-c2cnn3c(NCCN4CCOCC4)cc(Oc4cccc(Cl)c4)nc23)ccc1C(=O)NC1CC1 [Example C97] |
| > 500 | > 500 | < 100 | 100 to 500 |  |  |  | Cc1cc(-c2cnn3c(NCC4(O)CCOCC4)cc(Oc4cccnc4)nc23)ccc1C(=O)NC1CC1 [Example C98] |
| > 500 | > 500 | < 100 | 100 to 500 |  |  |  | Cc1cc(-c2cnn3c(NCC4(CO)CCOCC4)cc(Oc4cccnc4)nc23)ccc1C(=O)NC1CC1 [Example C99] |
| 100 to 500 | 100 to 500 | < 100 | ≤ 100 |  |  |  | Cc1cc(-c2cnn3c(NCC4CCOCC4)cc(NCC4CC4)nc23)ccc1C(=O)NC1CC1 [Example C103] |
| 100 to 500 | 100 to 500 | < 100 | ≤ 100 |  |  |  | COC[C@@H](Nc1cc(NCC2CCOCC2)n2ncc(-c3ccc(C(=O)NC4CC4)c(C)c3)c2n1)C(C)C [Example C104] |
| ≤ 100 | ≤ 100 | < 100 | ≤ 100 |  |  |  | O=C(NC1CC1)c1ccc(-c2cnn3c(NCCN4CCOCC4)cc(Oc4ccccc4)nc23)cc1Cl [Example C105] |
| > 500 | 100 to 500 | < 100 | 100 to 500 |  |  |  | Cc1cc(-c2cnn3c(NCC4CCOCC4)cc(N[C@H]4COC[C@H]4O)nc23)ccc1C(=O)NC1CC1 [Example C107] |
| ≤ 100 | 100 to 500 | < 100 | ≤ 100 |  |  |  | COCCNc1cc(N[C@H]2CCCC[C@H]2O)nc2c(-c3ccc(C(=O)NC4CC4)c(C)c3)cnn12 [Example C108] |
| 100 to 500 | 100 to 500 | < 100 | ≤ 100 |  |  |  | Cc1cc(-c2cnn3c(NCC4CCOCC4)cc(NC4CCC4)nc23)ccc1C(=O)NC1CC1 [Example C109] |
| 100 to 500 | 100 to 500 | < 100 | 100 to 500 |  |  |  | Cc1cc(-c2cnn3c(NCC4CCOCC4)cc(N[C@H](C(N)=O)C(C)C)nc23)ccc1C(=O)NC1CC1 [Example C111] |
| 100 to 500 | 100 to 500 | < 100 | 100 to 500 |  |  |  | Cc1cc(-c2cnn3c(NCC4CCOCC4)cc(NCC4(CO)CC4)nc23)ccc1C(=O)NC1CC1 [Example C113] |
| > 500 | > 500 | < 100 | > 500 |  |  |  | Cc1cc(-c2cnn3c(NCC4CCOCC4)cc(NCCN4CCOCC4)nc23)ccc1C(=O)NC1CC1 [Example C114] |
| > 500 | 100 to 500 | < 100 | 100 to 500 |  |  |  | Cc1cc(-c2cnn3c(NCC4CCOCC4)cc(N[C@@H](CO)C(C)C)nc23)ccc1C(=O)NC1CC1 [Example C121] |
| 100 to 500 | ≤ 100 | < 100 | ≤ 100 |  |  |  | Cc1cc(-c2cnn3c(NCC4CCOCC4)cc(N[C@H]4CCC[C@@H]4O)nc23)ccc1C(=O)NC1CC1 [Example C123] |
| 100 to 500 | 100 to 500 | < 100 | 100 to 500 |  |  |  | Cc1cc(-c2cnn3c(NCC4CCOCC4)cc(N[C@@H]4CCCC[C@H]4O)nc23)ccc1C(=O)NC1CC1 [Example C124] |
| 100 to 500 | ≤ 100 | < 100 | ≤ 100 |  |  |  | Cc1cc(-c2cnn3c(NCC4CCOCC4)cc(N[C@H]4CCCC[C@@H]4O)nc23)ccc1C(=O)NC1CC1 [Example C125] |
|  |  | < 100 |  | ≤ 100 | ≤ 100 | ≤ 100 | Cc1cc(-c2cnn3c(NCC4CCOCC4)cc(N[C@H]4CCC[C@@H]4O)nc23)ccc1C(=O)NC1CC1 [Example C126] |
| 100 to 500 | 100 to 500 | < 100 | ≤ 100 |  |  |  | CC[C@H](Nc1cc(NCC2CCOCC2)n2ncc(-c3ccc(C(=O)NC4CC4)c(C)c3)c2n1)C(C)(C)O [Example C127] |
| > 500 | 100 to 500 | < 100 | 100 to 500 |  |  |  | Cc1cc(-c2cnn3c(NCC4CCOCC4)cc(N[C@H]4CCCC[C@H]4CO)nc23)ccc1C(=O)NC1CC1 [Example C131] |
| > 500 | 100 to 500 | < 100 | > 500 |  |  |  | Cc1cc(-c2cnn3c(NCCCn4ccnc4)cc(N[C@H]4CCCC[C@H]4O)nc23)ccc1C(=O)NC1CC1 [Example C132] |
| 100 to 500 | 100 to 500 | < 100 | 100 to 500 |  |  |  | CC[C@H](Nc1cc(NC[C@H]2CCOC2)n2ncc(-c3ccc(C(=O)NC4CC4)c(C)c3)c2n1)[C@H](C)O [Example C133] |
| 100 to 500 | 100 to 500 | < 100 | 100 to 500 |  |  |  | CC[C@H](Nc1cc(NC[C@@H]2CCOC2)n2ncc(-c3ccc(C(=O)NC4CC4)c(C)c3)c2n1)[C@H](C)O [Example C134] |
| 100 to 500 | ≤ 100 | < 100 | ≤ 100 |  |  |  | Cc1cc(-c2cnn3c(NCC4CCOCC4)cc(N[C@@H]4CCOC4)nc23)ccc1C(=O)NC1CC1 [Example C136] |
